Data from ChEMBL document CHEMBL1152526, “Synthesis of C(7) modified chrysin derivatives designing to inhibit beta-ketoacyl-acyl carrier protein synthase III (FabH) as antibiotics” (Bioorg Med Chem, 2009).
Values after ≈ are worked out from the molar mass of the structure shown.

Experiments:
[1] = Inhibition of Escherichia coli FabH overexpressed in Escherichia coli DH10B cells by liquid scintillation counting
Bacillus subtilis = experiment: Antibacterial activity against Bacillus subtilis after 24 hrs by MTT assay; format: functional
Escherichia coli = experiment: Antibacterial activity against Escherichia coli after 24 hrs by MTT assay; format: functional
Pseudomonas fluorescens = experiment: Antibacterial activity against Pseudomonas fluorescens after 24 hrs by MTT assay; format: functional
Staphylococcus aureus = experiment: Antibacterial activity against Staphylococcus aureus after 24 hrs by MTT assay; format: functional

SMILES: CCCNCCOc1cc(O)c2c(=O)cc(-c3ccccc3)oc2c1
- IC50 [1]: 54 µM
- MIC (Bacillus subtilis): 50 µg/mL (≈ 147 µM)
- MIC (Escherichia coli): 25 µg/mL (≈ 73.7 µM)
- MIC (Pseudomonas fluorescens): 25 µg/mL (≈ 73.7 µM)
- MIC (Staphylococcus aureus): 50 µg/mL (≈ 147 µM)

SMILES: NC[C@H]1O[C@H](O[C@H]2[C@H](O)[C@@H](O[C@H]3O[C@H](CO)[C@@H](O)[C@H](N)[C@H]3O)[C@H](N)C[C@@H]2N)[C@H](N)[C@@H](O)[C@@H]1O [BEKANAMYCIN]
- MIC (Bacillus subtilis): 1.56 µg/mL (≈ 3.23 µM)
- MIC (Escherichia coli): 3.13 µg/mL (≈ 6.47 µM)
- MIC (Pseudomonas fluorescens): 3.13 µg/mL (≈ 6.47 µM)
- MIC (Staphylococcus aureus): 1.56 µg/mL (≈ 3.23 µM)

SMILES: CN1CCN(CCCOc2cc(O)c3c(=O)cc(-c4ccccc4)oc3c2)CC1
- IC50 [1]: 5.2 µM
- MIC (Bacillus subtilis): 6.25 µg/mL (≈ 15.8 µM)
- MIC (Escherichia coli): 6.25 µg/mL (≈ 15.8 µM)
- MIC (Pseudomonas fluorescens): 12.5 µg/mL (≈ 31.7 µM)
- MIC (Staphylococcus aureus): 3.13 µg/mL (≈ 7.93 µM)

SMILES: CCCN(CCC)CCCOc1cc(O)c2c(=O)cc(-c3ccccc3)oc2c1
- MIC (Bacillus subtilis): 25 µg/mL (≈ 63.2 µM)
- MIC (Escherichia coli): 25 µg/mL (≈ 63.2 µM)
- MIC (Pseudomonas fluorescens): 25 µg/mL (≈ 63.2 µM)
- MIC (Staphylococcus aureus): > 50 µg/mL

SMILES: O=c1cc(-c2ccccc2)oc2cc(OCCN3CCCC3)cc(O)c12
- MIC (Bacillus subtilis): 25 µg/mL (≈ 71.1 µM)
- MIC (Escherichia coli): 6.25 µg/mL (≈ 17.8 µM)
- MIC (Pseudomonas fluorescens): 12.5 µg/mL (≈ 35.6 µM)
- MIC (Staphylococcus aureus): 25 µg/mL (≈ 71.1 µM)

SMILES: CCCCN(CCCC)CCOc1cc(O)c2c(=O)cc(-c3ccccc3)oc2c1
- MIC (Bacillus subtilis): > 50 µg/mL
- MIC (Escherichia coli): > 50 µg/mL
- MIC (Pseudomonas fluorescens): > 50 µg/mL
- MIC (Staphylococcus aureus): > 50 µg/mL

SMILES: CCCN(CCC)CCOc1cc(O)c2c(=O)cc(-c3ccccc3)oc2c1
- MIC (Bacillus subtilis): > 50 µg/mL
- MIC (Escherichia coli): > 50 µg/mL
- MIC (Pseudomonas fluorescens): > 50 µg/mL
- MIC (Staphylococcus aureus): > 50 µg/mL

SMILES: O=c1cc(-c2ccccc2)oc2cc(OCCCN3CCNCC3)cc(O)c12
- IC50 [1]: 6.6 µM
- MIC (Bacillus subtilis): 12.5 µg/mL (≈ 32.9 µM)
- MIC (Escherichia coli): 3.13 µg/mL (≈ 8.23 µM)
- MIC (Pseudomonas fluorescens): 12.5 µg/mL (≈ 32.9 µM)
- MIC (Staphylococcus aureus): 6.25 µg/mL (≈ 16.4 µM)

SMILES: CCCCN(CCCC)CCCOc1cc(O)c2c(=O)cc(-c3ccccc3)oc2c1
- MIC (Bacillus subtilis): > 50 µg/mL
- MIC (Escherichia coli): > 50 µg/mL
- MIC (Pseudomonas fluorescens): > 50 µg/mL
- MIC (Staphylococcus aureus): > 50 µg/mL

SMILES: O=c1cc(-c2ccccc2)oc2cc(OCCCNCCO)cc(O)c12
- MIC (Bacillus subtilis): 12.5 µg/mL (≈ 35.2 µM)
- MIC (Escherichia coli): 6.25 µg/mL (≈ 17.6 µM)
- MIC (Pseudomonas fluorescens): 12.5 µg/mL (≈ 35.2 µM)
- MIC (Staphylococcus aureus): 25 µg/mL (≈ 70.3 µM)

SMILES: CN1CCN(CCOc2cc(O)c3c(=O)cc(-c4ccccc4)oc3c2)CC1
- MIC (Bacillus subtilis): 50 µg/mL (≈ 131 µM)
- MIC (Escherichia coli): 12.5 µg/mL (≈ 32.9 µM)
- MIC (Pseudomonas fluorescens): 25 µg/mL (≈ 65.7 µM)
- MIC (Staphylococcus aureus): 25 µg/mL (≈ 65.7 µM)

SMILES: CCN(CC)CCOc1cc(O)c2c(=O)cc(-c3ccccc3)oc2c1
- IC50 [1]: 70 µM
- MIC (Bacillus subtilis): > 50 µg/mL
- MIC (Escherichia coli): > 50 µg/mL
- MIC (Pseudomonas fluorescens): > 50 µg/mL
- MIC (Staphylococcus aureus): > 50 µg/mL

SMILES: CCCCNCCCOc1cc(O)c2c(=O)cc(-c3ccccc3)oc2c1
- MIC (Bacillus subtilis): 25 µg/mL (≈ 68 µM)
- MIC (Escherichia coli): 12.5 µg/mL (≈ 34 µM)
- MIC (Pseudomonas fluorescens): 12.5 µg/mL (≈ 34 µM)
- MIC (Staphylococcus aureus): 12.5 µg/mL (≈ 34 µM)

SMILES: O=c1cc(-c2ccccc2)oc2cc(O)cc(O)c12 [CHRYSIN]
- MIC (Bacillus subtilis): > 50 µg/mL
- MIC (Escherichia coli): > 50 µg/mL
- MIC (Pseudomonas fluorescens): > 50 µg/mL
- MIC (Staphylococcus aureus): > 50 µg/mL

SMILES: O=c1cc(-c2ccccc2)oc2cc(OCCN3CCCCC3)cc(O)c12
- MIC (Bacillus subtilis): 25 µg/mL (≈ 68.4 µM)
- MIC (Escherichia coli): 12.5 µg/mL (≈ 34.2 µM)
- MIC (Pseudomonas fluorescens): 12.5 µg/mL (≈ 34.2 µM)
- MIC (Staphylococcus aureus): 12.5 µg/mL (≈ 34.2 µM)

SMILES: CCN(CC)CCCOc1cc(O)c2c(=O)cc(-c3ccccc3)oc2c1
- MIC (Bacillus subtilis): > 50 µg/mL
- MIC (Escherichia coli): > 50 µg/mL
- MIC (Pseudomonas fluorescens): > 50 µg/mL
- MIC (Staphylococcus aureus): > 50 µg/mL

SMILES: O=c1cc(-c2ccccc2)oc2cc(OCCN3CCNCC3)cc(O)c12
- IC50 [1]: 11.2 µM
- MIC (Bacillus subtilis): 25 µg/mL (≈ 68.2 µM)
- MIC (Escherichia coli): 12.5 µg/mL (≈ 34.1 µM)
- MIC (Pseudomonas fluorescens): 6.25 µg/mL (≈ 17.1 µM)
- MIC (Staphylococcus aureus): 25 µg/mL (≈ 68.2 µM)

SMILES: O=c1cc(-c2ccccc2)oc2cc(OCCCN3CCCC3)cc(O)c12
- IC50 [1]: 3.1 µM
- MIC (Bacillus subtilis): 6.25 µg/mL (≈ 17.1 µM)
- MIC (Escherichia coli): 1.56 µg/mL (≈ 4.27 µM)
- MIC (Pseudomonas fluorescens): 6.25 µg/mL (≈ 17.1 µM)
- MIC (Staphylococcus aureus): 3.13 µg/mL (≈ 8.57 µM)

SMILES: NCCCNCCOc1cc(O)c2c(=O)cc(-c3ccccc3)oc2c1
- MIC (Bacillus subtilis): > 50 µg/mL
- MIC (Escherichia coli): > 50 µg/mL
- MIC (Pseudomonas fluorescens): > 50 µg/mL
- MIC (Staphylococcus aureus): > 50 µg/mL

SMILES: CCCNCCCOc1cc(O)c2c(=O)cc(-c3ccccc3)oc2c1
- MIC (Bacillus subtilis): 25 µg/mL (≈ 70.7 µM)
- MIC (Escherichia coli): 12.5 µg/mL (≈ 35.4 µM)
- MIC (Pseudomonas fluorescens): 12.5 µg/mL (≈ 35.4 µM)
- MIC (Staphylococcus aureus): 12.5 µg/mL (≈ 35.4 µM)
